Several values for one entry are separate records, joined by “and”; a condition that tells them apart may be missing. Equal values may be shown once. Read-outs that look alike come from different tables or passages of the source.
Legend:
[1] = target: MMP-13 (Homo sapiens, UniProt P45452); assay: MMP-13 FRET peptide enzyme assay (single dose 10 μM and IC50); type: biochemical; details: for IC50 / activity at 10 µM: measured in duplicate; for activity at 10 µM: remaining enzyme activity at 10 μM inhibitor concentration
Method: (§1) The buffer consisted of 50 mM HEPES at pH 7.5 with 10 mM CaCl2 and 0.01% Brij-35. 0.1 mg/mL BSA (Sigma Aldrich, St. Louis, MO, USA) was added before use. As a control inhibitor GM6001 (ilomastat, Enzo Life Sciences, Farmingdale, NY, USA) was used. For selectivity examinations single dose duplicate assays were performed in the same manner as described above on the MMP-1, -2, -3, -8, -9, -12 and -14 isoforms.

[2] = target: T1, MMP-7 (Homo sapiens, UniProt P09237); assay: MMP-7 FRET peptide enzyme assay (single dose 10 μM and IC50); details: for activity at 10 µM: read-out: % Activity MMP-7; for IC50: IC50 MMP-7, measured in duplicate
T1 sequence (P09237 95-267): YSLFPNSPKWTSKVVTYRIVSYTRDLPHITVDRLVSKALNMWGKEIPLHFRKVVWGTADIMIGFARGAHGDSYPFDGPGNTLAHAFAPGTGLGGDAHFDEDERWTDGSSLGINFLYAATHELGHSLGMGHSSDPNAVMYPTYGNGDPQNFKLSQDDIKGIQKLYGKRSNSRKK
Method: as §1

[3] = target: T2, MMP-1 (Homo sapiens, UniProt P03956); assay: MMP-1 single dose selectivity assay; details: read-out: Remaining enzymatic activity MMP-1
T2 sequence (P03956 100-469): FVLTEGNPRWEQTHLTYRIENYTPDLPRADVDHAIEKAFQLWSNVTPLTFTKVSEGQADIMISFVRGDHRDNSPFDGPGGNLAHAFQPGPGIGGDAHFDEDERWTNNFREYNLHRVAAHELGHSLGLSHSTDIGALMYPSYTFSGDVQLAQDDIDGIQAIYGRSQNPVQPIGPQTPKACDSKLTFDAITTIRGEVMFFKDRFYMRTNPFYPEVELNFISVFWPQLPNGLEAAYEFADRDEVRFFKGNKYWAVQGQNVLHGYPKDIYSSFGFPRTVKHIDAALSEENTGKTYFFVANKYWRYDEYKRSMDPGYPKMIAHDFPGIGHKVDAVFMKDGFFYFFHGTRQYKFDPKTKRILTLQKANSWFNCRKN

[4] = target: T3, MMP-2 (Homo sapiens, UniProt P08253); assay: MMP-2 single dose selectivity assay; details: read-out: Remaining enzymatic activity MMP-2
T3 sequence (P08253 110-660): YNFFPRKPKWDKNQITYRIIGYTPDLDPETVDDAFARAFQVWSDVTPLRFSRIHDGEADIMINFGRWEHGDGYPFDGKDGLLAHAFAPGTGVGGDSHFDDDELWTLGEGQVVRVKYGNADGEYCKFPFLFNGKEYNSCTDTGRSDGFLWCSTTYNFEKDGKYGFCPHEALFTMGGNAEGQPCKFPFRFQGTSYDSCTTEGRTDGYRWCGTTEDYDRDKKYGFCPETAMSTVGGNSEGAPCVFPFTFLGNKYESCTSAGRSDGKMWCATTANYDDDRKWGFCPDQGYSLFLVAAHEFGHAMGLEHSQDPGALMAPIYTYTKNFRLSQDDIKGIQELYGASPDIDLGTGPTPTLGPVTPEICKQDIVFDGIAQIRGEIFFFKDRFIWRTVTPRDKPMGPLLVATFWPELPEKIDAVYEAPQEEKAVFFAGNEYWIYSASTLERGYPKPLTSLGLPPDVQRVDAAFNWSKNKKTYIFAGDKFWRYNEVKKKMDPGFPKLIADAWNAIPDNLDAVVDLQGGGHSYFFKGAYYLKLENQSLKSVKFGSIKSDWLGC

[5] = target: T4, MMP-3 (Homo sapiens, UniProt P08254); assay: MMP-3 single dose selectivity assay; details: read-out: Remaining enzymatic activity MMP-3
[6] = target: T5, MMP-8 (Homo sapiens, UniProt P22894); assay: MMP-8 single dose selectivity assay; details: read-out: Remaining enzymatic activity MMP-8
Method: (§2) The buffer consisted of 50 mM HEPES at pH 7.5 with 10 mM CaCl2 and 0.01% Brij-35. 0.1 mg/mL BSA (Sigma Aldrich, St. Louis, MO, USA) was added before use. As a control inhibitor GM6001 (ilomastat, Enzo Life Sciences, Farmingdale, NY, USA) was used.

[7] = target: T6, MMP-9 (Homo sapiens, UniProt P14780); assay: MMP-9 single dose selectivity assay; details: read-out: Remaining enzymatic activity MMP-9
Method: as §2

[8] = target: T7, MMP-12 (Homo sapiens, UniProt P39900); assay: MMP-12 single dose selectivity assay; details: read-out: Remaining enzymatic activity MMP-12
Method: as §2

[9] = target: T8, MMP-14 (Homo sapiens, UniProt P50281); assay: MMP-14 single dose selectivity assay; details: read-out: Remaining enzymatic activity MMP-14
Method: as §2

[10] = target: T1, MMP-7; details: cited from earlier work
[11] = target: T1, MMP-7; details: 10 µM inhibitor concentration; cited from earlier work
[12] = target: T2, MMP-1; details: 10 µM inhibitor concentration; cited from earlier work
[13] = target: T3, MMP-2; details: 10 µM inhibitor concentration; cited from earlier work
[14] = target: T4, MMP-3; details: 10 µM inhibitor concentration; cited from earlier work
[15] = target: T5, MMP-8; details: 10 µM inhibitor concentration; cited from earlier work
[16] = target: T6, MMP-9; details: 10 µM inhibitor concentration; cited from earlier work
[17] = target: T7, MMP-12; details: 10 µM inhibitor concentration; cited from earlier work
[18] = target: T8, MMP-14; details: 10 µM inhibitor concentration; cited from earlier work

T4 sequence (P08254 100-477): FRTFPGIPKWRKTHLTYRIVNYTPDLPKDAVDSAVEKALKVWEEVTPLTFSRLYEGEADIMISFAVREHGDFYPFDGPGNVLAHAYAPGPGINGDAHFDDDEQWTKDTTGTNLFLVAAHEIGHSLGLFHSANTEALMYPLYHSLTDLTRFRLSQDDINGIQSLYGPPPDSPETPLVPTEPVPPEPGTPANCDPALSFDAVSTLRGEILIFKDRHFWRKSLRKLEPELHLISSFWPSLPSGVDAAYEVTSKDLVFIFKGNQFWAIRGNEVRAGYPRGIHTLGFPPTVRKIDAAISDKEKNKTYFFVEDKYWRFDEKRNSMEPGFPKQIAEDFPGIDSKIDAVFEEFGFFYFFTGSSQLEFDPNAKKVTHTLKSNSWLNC
T6 sequence (P14780 94-707): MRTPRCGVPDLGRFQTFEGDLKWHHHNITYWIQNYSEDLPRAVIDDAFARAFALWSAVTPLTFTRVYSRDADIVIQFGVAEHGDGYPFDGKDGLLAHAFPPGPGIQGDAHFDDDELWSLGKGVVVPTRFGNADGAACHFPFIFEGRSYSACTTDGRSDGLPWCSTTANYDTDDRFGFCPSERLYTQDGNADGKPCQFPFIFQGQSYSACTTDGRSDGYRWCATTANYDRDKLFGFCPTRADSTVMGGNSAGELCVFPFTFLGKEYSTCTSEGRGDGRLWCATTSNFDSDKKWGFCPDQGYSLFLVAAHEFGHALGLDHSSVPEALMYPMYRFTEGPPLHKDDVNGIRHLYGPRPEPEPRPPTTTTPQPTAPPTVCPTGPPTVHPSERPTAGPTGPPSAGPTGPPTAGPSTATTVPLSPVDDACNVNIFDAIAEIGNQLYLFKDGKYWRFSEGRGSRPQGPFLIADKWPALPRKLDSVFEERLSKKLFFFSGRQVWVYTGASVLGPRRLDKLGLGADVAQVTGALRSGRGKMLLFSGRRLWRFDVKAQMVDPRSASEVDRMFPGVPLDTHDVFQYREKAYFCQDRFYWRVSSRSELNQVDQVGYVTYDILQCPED
T7 sequence (P39900 106-470): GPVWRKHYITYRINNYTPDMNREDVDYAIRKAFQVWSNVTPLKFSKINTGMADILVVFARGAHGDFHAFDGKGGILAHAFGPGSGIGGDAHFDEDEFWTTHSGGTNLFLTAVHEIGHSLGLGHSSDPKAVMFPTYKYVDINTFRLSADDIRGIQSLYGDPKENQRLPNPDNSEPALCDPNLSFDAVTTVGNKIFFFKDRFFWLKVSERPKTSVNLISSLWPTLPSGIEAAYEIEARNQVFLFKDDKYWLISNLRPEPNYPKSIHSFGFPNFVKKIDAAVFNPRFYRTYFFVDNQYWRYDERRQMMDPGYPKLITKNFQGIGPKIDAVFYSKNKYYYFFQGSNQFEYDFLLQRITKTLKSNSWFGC
T5 sequence (P22894 101-467): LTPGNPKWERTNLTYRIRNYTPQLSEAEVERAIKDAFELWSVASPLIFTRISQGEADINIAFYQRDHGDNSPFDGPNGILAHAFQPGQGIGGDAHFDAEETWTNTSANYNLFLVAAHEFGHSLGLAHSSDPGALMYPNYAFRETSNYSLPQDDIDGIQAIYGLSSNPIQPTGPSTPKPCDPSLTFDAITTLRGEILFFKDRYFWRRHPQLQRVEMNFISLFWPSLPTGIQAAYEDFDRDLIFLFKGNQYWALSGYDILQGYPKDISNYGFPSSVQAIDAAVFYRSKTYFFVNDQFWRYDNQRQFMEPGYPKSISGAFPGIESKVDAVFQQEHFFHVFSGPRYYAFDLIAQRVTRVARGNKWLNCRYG

O=C(O)CCCOc1ccc(CC(=O)Nc2ccc3c(c2)C(=O)N(Cc2ccc(F)cc2)C3=O)cc1 [Compound 14l, 4-{4-[({2-[(4-Fluorophenyl)methyl]-1,3-dioxo-2,3-dihydro-1H-isoindol-5-yl}carbamoyl)methyl]-phenoxy}butanoic acid]
IC50 [1]: 361 ± 52 nM | activity at 10 µM [1]: 3.6 ± 1.1% | activity at 10 µM [2]: 85.1 ± 2.2%

O=C(O)CCCCCOc1ccc(CC(=O)Nc2ccc3c(c2)C(=O)N(Cc2ccccc2)C3=O)cc1 [Compound 14f, 6-(4-{[(2-Benzyl-1,3-dioxo-2,3-dihydro-1H-isoindol-5-yl)carbamoyl]methyl}phenoxy)hexanoic acid]
activity at 10 µM [1]: 2.5 ± 0.1% | activity at 10 µM [2]: 59.4 ± 0.2%

O=C(O)CCCCOc1ccc(CC(=O)Nc2ccc3c(c2)C(=O)N(Cc2ccccc2)C3=O)cc1 [Compound 14e, 5-(4-{[(2-Benzyl-1,3-dioxo-2,3-dihydro-1H-isoindol-5-yl)carbamoyl]methyl}phenoxy)pentanoic acid]
activity at 10 µM [2]: 93.2 ± 3.3%

O=C(O)CCCCCCCOc1ccc(CC(=O)Nc2ccc3c(c2)C(=O)N(Cc2ccc(F)cc2)C3=O)cc1 [Compound 14o, 8-{4-[({2-[(4-Fluorophenyl)methyl]-1,3-dioxo-2,3-dihydro-1H-isoindol-5-yl}carbamoyl)methyl]-phenoxy}octanoic acid]
activity at 10 µM [1]: 34.6 ± 2.3% | activity at 10 µM [2]: 64.5 ± 3.7%

O=C(O)CCCCCCCCOc1ccc(CC(=O)Nc2ccc3c(c2)C(=O)N(Cc2ccccc2)C3=O)cc1 [Compound 14i, 9-(4-{[(2-Benzyl-1,3-dioxo-2,3-dihydro-1H-isoindol-5-yl)carbamoyl]methyl}phenoxy)nonanoic acid]
IC50 [1]: 1200 nM and 1250 nM | remaining activity at 10 µM [3]: 100% | remaining activity at 10 µM [4]: 98% | remaining activity at 10 µM [5]: 73% | remaining activity at 10 µM [6]: 80% | remaining activity at 10 µM [7]: 87% | remaining activity at 10 µM [8]: 97% | remaining activity at 10 µM [9]: 91% | IC50 [2]: 2.2 µM and 2.25 µM

O=C(O)CCCCCOc1ccc(CC(=O)Nc2ccc3c(c2)C(=O)N(Cc2ccc(F)cc2)C3=O)cc1 [Compound 14m, 6-{4-[({2-[(4-Fluorophenyl)methyl]-1,3-dioxo-2,3-dihydro-1H-isoindol-5-yl}carbamoyl)methyl]-phenoxy}hexanoic acid]
activity at 10 µM [1]: 1.2 ± 0.1% | activity at 10 µM [2]: 69.2 ± 0.1%

O=C(O)CCOc1ccc(CC(=O)Nc2ccc3c(c2)C(=O)N(Cc2ccccc2)C3=O)cc1 [Compound 14c, 3-(4-{[(2-Benzyl-1,3-dioxo-2,3-dihydro-1H-isoindol-5-yl)carbamoyl]methyl}phenoxy)propanoic acid]
activity at 10 µM [1]: 35.8 ± 5.1% | activity at 10 µM [2]: 93.1 ± 1.7%

O=C(O)COc1ccc(CC(=O)Nc2ccc3c(c2)C(=O)N(Cc2ccccc2)C3=O)cc1 [Compound 14b, 2-(4-{[(2-Benzyl-1,3-dioxo-2,3-dihydro-1H-isoindol-5-yl)carbamoyl]methyl}phenoxy)acetic acid]
activity at 10 µM [1]: 58.7 ± 2.7% | activity at 10 µM [2]: 89.9 ± 10%

O=C(O)CCCCCCCOc1ccc(CC(=O)Nc2ccc3c(c2)C(=O)N(Cc2ccccc2)C3=O)cc1 [Compound 14h, 8-(4-{[(2-Benzyl-1,3-dioxo-2,3-dihydro-1H-isoindol-5-yl)carbamoyl]methyl}phenoxy)octanoic acid]
IC50 [1]: 1670 ± 429 nM | activity at 10 µM [1]: 16 ± 0.14% | IC50 [2]: 3.18 ± 0.249 µM | activity at 10 µM [2]: 25.9 ± 0.5%

O=C(O)CCCOc1ccc(CC(=O)Nc2ccc3c(c2)C(=O)N(Cc2ccccc2)C3=O)cc1 [Compound 14d, 4-(4-{[(2-Benzyl-1,3-dioxo-2,3-dihydro-1H-isoindol-5-yl)carbamoyl]methyl}phenoxy)butanoic acid]
activity at 10 µM [1]: 2.6 ± 1.3% | activity at 10 µM [2]: 91.3 ± 0.4%

O=C(O)C(Cc1c[nH]c2ccccc12)NS(=O)(=O)c1ccc(Cl)c(C(F)(F)F)c1 (stereo not shown) [Compound 3]
selectivity over MMP-1 ([10]; MMP-7 over MMP-1): 10 fold | selectivity over MMP-14 ([10]; MMP-7 over MMP-14): 10 fold | IC50 [10]: 10 µM

O=C(O)CCCCCCOc1ccc(CC(=O)Nc2ccc3c(c2)C(=O)N(Cc2ccc(F)cc2)C3=O)cc1 [Compound 14n, 7-{4-[({2-[(4-Fluorophenyl)methyl]-1,3-dioxo-2,3-dihydro-1H-isoindol-5-yl}carbamoyl)methyl]-phenoxy}heptanoic acid]
activity at 10 µM [1]: 1.9 ± 0.5% | activity at 10 µM [2]: 47.5 ± 5.1%

CN1C(=O)c2ccc(NC(=O)Cc3ccc(OCCCCC(=O)O)cc3)cc2C1=O [Compound 14a, 5-(4-{[(2-Methyl-1,3-dioxo-2,3-dihydro-1H-isoindol-5-yl)carbamoyl]methyl}phenoxy)pentanoic acid]
activity at 10 µM [1]: 23.7 ± 3.3% | inhibition of MMP-7 (in words) ([2]; discussion of structure activity relationship): total loss of inhibition | activity at 10 µM [2]: 100 ± 4.4%

O=C(O)CCCCCCCCCOc1ccc(CC(=O)Nc2ccc3c(c2)C(=O)N(Cc2ccccc2)C3=O)cc1 [Compound 14j, 10-(4-{[(2-Benzyl-1,3-dioxo-2,3-dihydro-1H-isoindol-5-yl)carbamoyl]methyl}phenoxy)decanoic acid]
IC50 [1]: 7120 ± 940 nM | IC50 [2]: 6.2 ± 1.85 µM

O=C(O)CCCCCCOc1ccc(CC(=O)Nc2ccc3c(c2)C(=O)N(Cc2ccccc2)C3=O)cc1 [Compound 14g, 7-(4-{[(2-Benzyl-1,3-dioxo-2,3-dihydro-1H-isoindol-5-yl)carbamoyl]methyl}phenoxy)heptanoic acid]
IC50 [1]: 150 ± 31 nM | activity at 10 µM [1]: 1 ± 0.1% | activity at 10 µM [2]: 53.8 ± 0.8%

O=C(O)CCOc1ccc(CC(=O)Nc2ccc3c(c2)C(=O)N(Cc2ccc(F)cc2)C3=O)cc1 [Compound 14k, 3-{4-[({2-[(4-Fluorophenyl)methyl]-1,3-dioxo-2,3-dihydro-1H-isoindol-5-yl}carbamoyl)methyl]-phenoxy}propanoic acid]
activity at 10 µM [1]: 37 ± 0.2% | activity at 10 µM [2]: 98 ± 7.3%

O=C(O)CCCCOc1ccc(CC(=O)Nc2ccc3c(c2)C(=O)N(Cc2ccc(F)cc2)C3=O)cc1 [Compound 5, 5-{4-[({2-[(4-Fluorophenyl)methyl]-1,3-dioxo-2,3-dihydro-1H-isoindol-5-yl}carbamoyl)methyl]-phenoxy}pentanoic acid]
selectivity for MMP-13 over MMP-7 ([1]; from IC50-values): > 2600 fold | Remaining enzymatic activity MMP-7 [11]: 68% | Remaining enzymatic activity MMP-1 [12]: 100% | Remaining enzymatic activity MMP-2 [13]: 100% | Remaining enzymatic activity MMP-3 [14]: 100% | Remaining enzymatic activity MMP-8 [15]: 97% | Remaining enzymatic activity MMP-9 [16]: 100% | Remaining enzymatic activity MMP-12 [17]: 91% | Remaining enzymatic activity MMP-14 [18]: 100% | IC50 [2]: 15.7 µM and 15.6 µM | activity at 10 µM [2]: 67.5 ± 2.6%

— article PMC6151531, “Development of a Non-Hydroxamate Dual Matrix Metalloproteinase (MMP)-7/-13 Inhibitor” (Molecules : A Journal of Synthetic Chemistry and Natural …, 2017)
